Data set [1] concerns the target T1, Receptor-type tyrosine-protein phosphatase C (Homo sapiens, UniProt P08575).
T1 sequence (P08575 whole entry): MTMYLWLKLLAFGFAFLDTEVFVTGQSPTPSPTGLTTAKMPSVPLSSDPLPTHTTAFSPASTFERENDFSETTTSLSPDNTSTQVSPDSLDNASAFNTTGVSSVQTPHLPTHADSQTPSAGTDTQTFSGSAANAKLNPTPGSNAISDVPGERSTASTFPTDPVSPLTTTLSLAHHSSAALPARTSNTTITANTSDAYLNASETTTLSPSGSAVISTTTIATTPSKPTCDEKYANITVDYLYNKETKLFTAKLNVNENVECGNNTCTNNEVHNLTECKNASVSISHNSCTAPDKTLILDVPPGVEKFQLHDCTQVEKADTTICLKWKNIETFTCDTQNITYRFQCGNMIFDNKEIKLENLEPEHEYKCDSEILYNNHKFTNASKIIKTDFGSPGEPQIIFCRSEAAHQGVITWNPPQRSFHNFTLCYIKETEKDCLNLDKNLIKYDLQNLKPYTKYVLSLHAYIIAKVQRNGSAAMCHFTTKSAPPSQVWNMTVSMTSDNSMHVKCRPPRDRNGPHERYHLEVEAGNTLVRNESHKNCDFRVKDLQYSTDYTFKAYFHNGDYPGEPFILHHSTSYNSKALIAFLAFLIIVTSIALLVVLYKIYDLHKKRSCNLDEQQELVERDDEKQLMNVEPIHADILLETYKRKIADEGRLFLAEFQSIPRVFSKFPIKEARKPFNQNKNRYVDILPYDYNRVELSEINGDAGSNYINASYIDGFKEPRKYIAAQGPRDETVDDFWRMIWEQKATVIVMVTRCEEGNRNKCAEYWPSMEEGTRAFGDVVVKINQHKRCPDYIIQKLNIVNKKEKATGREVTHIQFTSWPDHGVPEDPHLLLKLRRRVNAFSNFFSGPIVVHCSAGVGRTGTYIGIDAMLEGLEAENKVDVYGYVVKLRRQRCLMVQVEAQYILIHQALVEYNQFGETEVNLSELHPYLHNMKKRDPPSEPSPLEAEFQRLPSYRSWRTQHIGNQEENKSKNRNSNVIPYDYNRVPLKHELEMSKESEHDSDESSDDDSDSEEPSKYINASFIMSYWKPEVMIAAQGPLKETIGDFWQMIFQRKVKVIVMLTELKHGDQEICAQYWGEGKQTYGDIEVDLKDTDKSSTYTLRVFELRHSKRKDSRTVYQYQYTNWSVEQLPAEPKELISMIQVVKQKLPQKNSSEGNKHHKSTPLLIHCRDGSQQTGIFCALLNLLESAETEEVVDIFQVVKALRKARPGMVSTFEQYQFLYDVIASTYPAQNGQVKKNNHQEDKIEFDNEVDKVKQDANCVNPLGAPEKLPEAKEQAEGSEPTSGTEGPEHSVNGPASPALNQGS
The data set is described as follows: Inhibition of human recombinant CD45.

For data set [2], the target named is Receptor-type tyrosine-protein phosphatase F (Homo sapiens, UniProt P10586). The data set is described as follows: Inhibition of human recombinant LAR.
In data set [3] the target is T2, Tyrosine-protein phosphatase non-receptor type 1 (Homo sapiens, UniProt P18031).
T2 sequence (P18031 whole entry): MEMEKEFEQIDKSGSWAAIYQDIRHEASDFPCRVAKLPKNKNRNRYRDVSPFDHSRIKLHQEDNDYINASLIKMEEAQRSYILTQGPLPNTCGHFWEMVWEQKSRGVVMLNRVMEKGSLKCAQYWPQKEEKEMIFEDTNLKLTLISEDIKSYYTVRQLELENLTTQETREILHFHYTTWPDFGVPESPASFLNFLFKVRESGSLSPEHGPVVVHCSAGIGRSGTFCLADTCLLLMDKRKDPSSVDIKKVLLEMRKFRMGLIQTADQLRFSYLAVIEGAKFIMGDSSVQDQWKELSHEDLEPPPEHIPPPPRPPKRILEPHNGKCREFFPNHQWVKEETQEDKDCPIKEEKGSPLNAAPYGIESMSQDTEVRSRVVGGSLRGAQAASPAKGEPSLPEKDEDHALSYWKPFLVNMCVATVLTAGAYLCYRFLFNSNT
The data set is described as follows: Inhibition of human recombinant PTP1B.

The subject of another data set is Hepatocyte. The experiment in a line: Decrease in drug uptake in rat hepatocytes in presence of verapamil. The class given is ADME, cell-based. On the set-up: scale not given: the % may be the effect or the level left.
The target of a further data set is T3, Cytochrome P450 1A2 (Homo sapiens, UniProt P05177).
T3 sequence (P05177 whole entry): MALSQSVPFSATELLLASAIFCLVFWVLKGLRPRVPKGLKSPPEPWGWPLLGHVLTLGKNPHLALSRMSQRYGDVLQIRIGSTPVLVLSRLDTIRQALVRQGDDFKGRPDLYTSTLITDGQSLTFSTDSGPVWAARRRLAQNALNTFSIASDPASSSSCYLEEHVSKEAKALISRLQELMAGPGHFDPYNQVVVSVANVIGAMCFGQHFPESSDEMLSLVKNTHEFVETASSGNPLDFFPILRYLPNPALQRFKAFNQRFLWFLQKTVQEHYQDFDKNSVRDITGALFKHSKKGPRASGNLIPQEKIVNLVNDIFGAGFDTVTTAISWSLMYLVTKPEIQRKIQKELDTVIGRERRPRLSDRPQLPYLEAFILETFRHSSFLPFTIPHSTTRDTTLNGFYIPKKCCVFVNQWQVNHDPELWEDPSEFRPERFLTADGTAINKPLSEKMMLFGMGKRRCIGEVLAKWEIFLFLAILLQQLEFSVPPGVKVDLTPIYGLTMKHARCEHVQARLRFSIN
The data set is described as follows: Inhibition of CYP1A2. The class given is ADME.

Another data set deals with Cytochrome P450 2C19 (Homo sapiens, UniProt P33261). The data set is described as follows: Inhibition of CYP2C19. Type of data set: ADME.
The target of another data set is Cytochrome P450 2C9 (Homo sapiens, UniProt P11712). The experiment in a line: Inhibition of CYP2C9. Type of data set: ADME.
The next data set concerns the target Cytochrome P450 2D6 (Homo sapiens, UniProt P10635). The data set is described as follows: Inhibition of CYP2D6. Type of data set: ADME.
In another data set the target is Cytochrome P450 3A4 (Homo sapiens, UniProt P08684). The data set is described as follows: Inhibition of CYP3A4. Type of data set: ADME.
The next data set has as its target T4, Cytochrome P450 2A6 (Homo sapiens, UniProt P11509).
T4 sequence (P11509 whole entry): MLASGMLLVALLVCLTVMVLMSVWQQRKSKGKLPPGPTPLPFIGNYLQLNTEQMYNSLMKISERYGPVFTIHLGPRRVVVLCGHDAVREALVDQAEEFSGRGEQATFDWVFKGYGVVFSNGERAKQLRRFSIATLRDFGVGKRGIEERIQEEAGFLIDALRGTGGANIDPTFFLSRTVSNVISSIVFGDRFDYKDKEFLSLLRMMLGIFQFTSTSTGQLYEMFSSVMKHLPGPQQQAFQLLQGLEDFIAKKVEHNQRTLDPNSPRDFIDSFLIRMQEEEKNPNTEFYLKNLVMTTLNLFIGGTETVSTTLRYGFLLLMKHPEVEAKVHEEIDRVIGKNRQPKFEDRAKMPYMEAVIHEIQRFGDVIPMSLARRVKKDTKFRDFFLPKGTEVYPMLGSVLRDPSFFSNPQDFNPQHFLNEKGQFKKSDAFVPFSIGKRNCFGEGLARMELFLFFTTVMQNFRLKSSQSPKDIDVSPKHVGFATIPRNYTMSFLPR
The data set is described as follows: Inhibition of CYP2A6. The class given is ADME.

A further data set deals with T5, Cytochrome P450 2C8 (Homo sapiens, UniProt P10632).
T5 sequence (P10632 whole entry): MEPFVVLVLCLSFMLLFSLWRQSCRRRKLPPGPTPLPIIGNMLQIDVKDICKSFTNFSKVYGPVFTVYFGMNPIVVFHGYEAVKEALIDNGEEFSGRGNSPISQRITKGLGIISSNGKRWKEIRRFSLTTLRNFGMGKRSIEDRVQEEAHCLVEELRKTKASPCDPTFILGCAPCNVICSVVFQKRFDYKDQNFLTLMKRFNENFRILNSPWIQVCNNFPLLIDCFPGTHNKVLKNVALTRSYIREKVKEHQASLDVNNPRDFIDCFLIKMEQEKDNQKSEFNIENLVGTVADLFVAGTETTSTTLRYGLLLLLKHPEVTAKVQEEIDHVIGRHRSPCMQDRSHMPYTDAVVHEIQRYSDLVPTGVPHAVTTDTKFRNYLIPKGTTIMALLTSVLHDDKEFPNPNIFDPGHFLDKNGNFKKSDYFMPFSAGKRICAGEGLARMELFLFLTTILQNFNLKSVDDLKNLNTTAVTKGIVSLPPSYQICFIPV
The data set is described as follows: Inhibition of CYP2C8. Type of data set: ADME.

Data set [4] is described as follows: Aqueous solubility at pH 7.4. Type of data set: physicochemical.
The nature of data set [5]: Permeability coefficient across human Caco-2 cells. Type of data set: ADME, cell-based. The following applies: read-out: permeability.
Data set [6] in a line: Stability in human liver microsomes. Type of data set: ADME, Microsome.
The nature of data set [7]: Stability in mouse liver microsomes. The class given is ADME, Microsome. A general note: Liver microsomes are a subcellular fraction often used to study metabolism.
Data set [8] can be described thus: Stability in rat liver microsomes. Type of data set: ADME, Microsome.
Data set [9] in a line: Cmax in C57/B6 mouse plasma at 10 mg/kg, ip after 1 hr. The class given is ADME, organism-based. On the set-up: dose 10 mg/kg, route intraperitoneal.
The nature of data set [10]: Drug level in C57/B6 mouse plasma at 10 mg/kg, ip after 7 hrs. To be noted: read-out: Drug uptake. On the set-up: dose 10 mg/kg, route intraperitoneal. The class given is ADME, organism-based.
Data set [11] can be described thus: Drug level in C57/B6 mouse liver at 10 mg/kg, ip after 1 hr. Type of data set: ADME, organism-based. Set-up: dose 10 mg/kg, route intraperitoneal. The following applies: read-out: Drug uptake.
Data set [12] can be described thus: Drug level in C57/B6 mouse liver at 10 mg/kg, ip after 7 hrs. The class given is ADME, organism-based. Set-up: dose 10 mg/kg, route intraperitoneal. To be noted: read-out: Drug uptake.
Data set [13] in a line: Drug level in C57/B6 mouse muscle at 10 mg/kg, ip after 1 hr. The class given is ADME, organism-based, Muscle tissue. Set-up: dose 10 mg/kg, route intraperitoneal. The following applies: read-out: Drug uptake.
Data set [14] is described as follows: Drug level in C57/B6 mouse muscle at 10 mg/kg, ip after 7 hrs. Set-up: dose 10 mg/kg, route intraperitoneal. The class given is ADME, organism-based, Muscle tissue. The following applies: read-out: Drug uptake.
Data set [15] can be described thus: Plasma clearance in Sprague-Dawley rat at 2 mg/kg, iv. The class given is ADME, organism-based. On the set-up: dose 2 mg/kg, route intravenous.
Data set [16] is described as follows: Half life in Sprague-Dawley rat at 2 mg/kg, iv. The class given is ADME, organism-based. Set-up: dose 2 mg/kg, route intravenous. To be noted: in vivo.

A word on the Ki: it is the equilibrium dissociation constant of an inhibitor or competing ligand from its target. What is called IC50 is the point on the concentration scale where inhibition reaches its midpoint. In general, solubility refers to the concentration that dissolves in the medium under given conditions. What is called half-life is the time in which the quantity being followed falls by half. Broadly, the Cmax is the peak of the concentration-time curve. What is called clearance is the rate of elimination divided by the concentration.

Sequence of Receptor-type tyrosine-protein phosphatase F (P10586 whole entry): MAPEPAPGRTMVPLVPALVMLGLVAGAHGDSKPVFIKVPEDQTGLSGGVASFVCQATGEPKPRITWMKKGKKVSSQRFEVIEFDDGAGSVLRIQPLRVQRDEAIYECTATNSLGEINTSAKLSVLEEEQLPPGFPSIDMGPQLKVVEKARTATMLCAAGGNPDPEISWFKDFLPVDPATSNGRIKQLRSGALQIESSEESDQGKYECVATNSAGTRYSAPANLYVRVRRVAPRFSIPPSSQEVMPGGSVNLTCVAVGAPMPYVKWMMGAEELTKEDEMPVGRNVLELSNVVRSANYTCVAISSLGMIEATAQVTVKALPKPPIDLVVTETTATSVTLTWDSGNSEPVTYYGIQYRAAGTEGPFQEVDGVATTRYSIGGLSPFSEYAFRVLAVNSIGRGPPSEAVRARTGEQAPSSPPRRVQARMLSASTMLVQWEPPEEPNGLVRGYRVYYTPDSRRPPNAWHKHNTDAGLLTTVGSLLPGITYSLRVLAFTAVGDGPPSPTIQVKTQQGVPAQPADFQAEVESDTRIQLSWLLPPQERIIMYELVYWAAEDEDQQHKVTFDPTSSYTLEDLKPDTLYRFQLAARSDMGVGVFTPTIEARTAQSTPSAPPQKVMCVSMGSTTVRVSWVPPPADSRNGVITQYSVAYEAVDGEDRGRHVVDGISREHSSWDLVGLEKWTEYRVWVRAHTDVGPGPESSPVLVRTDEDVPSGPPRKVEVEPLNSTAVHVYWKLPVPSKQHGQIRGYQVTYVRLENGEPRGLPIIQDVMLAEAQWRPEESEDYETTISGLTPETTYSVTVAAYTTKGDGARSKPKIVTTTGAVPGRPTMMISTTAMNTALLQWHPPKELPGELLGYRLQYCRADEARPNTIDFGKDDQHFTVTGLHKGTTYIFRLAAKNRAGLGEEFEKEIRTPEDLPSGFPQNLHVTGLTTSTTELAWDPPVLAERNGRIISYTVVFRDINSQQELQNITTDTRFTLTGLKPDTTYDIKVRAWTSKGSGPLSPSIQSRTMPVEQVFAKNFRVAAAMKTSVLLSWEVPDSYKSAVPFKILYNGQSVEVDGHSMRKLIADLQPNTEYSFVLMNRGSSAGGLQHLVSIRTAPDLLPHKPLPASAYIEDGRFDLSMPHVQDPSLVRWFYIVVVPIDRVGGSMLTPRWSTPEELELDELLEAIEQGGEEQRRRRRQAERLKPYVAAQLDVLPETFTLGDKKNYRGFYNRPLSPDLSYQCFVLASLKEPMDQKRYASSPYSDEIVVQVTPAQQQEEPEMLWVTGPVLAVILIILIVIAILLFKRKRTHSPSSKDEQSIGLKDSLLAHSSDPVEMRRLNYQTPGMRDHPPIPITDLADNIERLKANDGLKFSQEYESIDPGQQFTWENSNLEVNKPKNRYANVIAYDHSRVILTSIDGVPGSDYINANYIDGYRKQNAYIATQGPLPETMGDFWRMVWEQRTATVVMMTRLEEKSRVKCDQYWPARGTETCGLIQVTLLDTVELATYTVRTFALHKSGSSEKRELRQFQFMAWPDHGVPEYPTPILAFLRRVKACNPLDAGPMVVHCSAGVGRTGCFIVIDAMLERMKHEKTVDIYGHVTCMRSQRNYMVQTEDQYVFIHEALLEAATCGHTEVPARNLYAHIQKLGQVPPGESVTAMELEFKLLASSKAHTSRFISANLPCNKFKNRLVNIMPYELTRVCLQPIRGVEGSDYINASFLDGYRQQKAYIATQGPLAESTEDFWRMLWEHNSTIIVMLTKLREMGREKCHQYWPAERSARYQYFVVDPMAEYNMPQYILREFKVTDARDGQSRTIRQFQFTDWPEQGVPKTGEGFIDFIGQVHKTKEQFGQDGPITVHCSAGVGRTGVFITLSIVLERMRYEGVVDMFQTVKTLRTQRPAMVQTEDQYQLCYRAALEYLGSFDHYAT
Sequence of Cytochrome P450 2C19 (P33261 whole entry): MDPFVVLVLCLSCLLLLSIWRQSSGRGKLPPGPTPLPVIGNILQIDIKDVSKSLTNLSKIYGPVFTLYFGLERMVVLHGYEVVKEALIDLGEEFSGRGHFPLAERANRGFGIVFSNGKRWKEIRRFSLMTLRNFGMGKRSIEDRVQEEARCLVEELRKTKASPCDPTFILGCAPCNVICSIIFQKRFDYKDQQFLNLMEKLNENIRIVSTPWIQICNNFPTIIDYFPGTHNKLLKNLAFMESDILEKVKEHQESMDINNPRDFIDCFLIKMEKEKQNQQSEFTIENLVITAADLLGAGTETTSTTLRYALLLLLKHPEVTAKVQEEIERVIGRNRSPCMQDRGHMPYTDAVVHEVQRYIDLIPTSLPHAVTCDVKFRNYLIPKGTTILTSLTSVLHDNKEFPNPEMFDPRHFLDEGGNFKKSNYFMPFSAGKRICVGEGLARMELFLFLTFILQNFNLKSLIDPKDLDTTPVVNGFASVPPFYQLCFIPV
Sequence of Cytochrome P450 2C9 (P11712 whole entry): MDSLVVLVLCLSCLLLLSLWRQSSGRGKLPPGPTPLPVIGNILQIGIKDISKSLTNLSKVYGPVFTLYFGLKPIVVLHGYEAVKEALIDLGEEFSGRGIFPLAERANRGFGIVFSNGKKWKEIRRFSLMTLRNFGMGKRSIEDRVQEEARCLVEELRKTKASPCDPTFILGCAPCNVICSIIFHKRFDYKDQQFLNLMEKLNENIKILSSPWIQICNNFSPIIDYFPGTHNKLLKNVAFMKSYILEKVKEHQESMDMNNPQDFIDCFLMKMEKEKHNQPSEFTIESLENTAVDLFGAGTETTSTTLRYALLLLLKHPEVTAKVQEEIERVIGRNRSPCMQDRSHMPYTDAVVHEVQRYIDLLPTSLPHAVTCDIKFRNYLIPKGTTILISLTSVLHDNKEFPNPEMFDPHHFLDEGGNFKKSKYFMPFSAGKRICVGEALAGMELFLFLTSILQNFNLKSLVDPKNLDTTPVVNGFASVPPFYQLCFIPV
Sequence of Cytochrome P450 2D6 (P10635 whole entry): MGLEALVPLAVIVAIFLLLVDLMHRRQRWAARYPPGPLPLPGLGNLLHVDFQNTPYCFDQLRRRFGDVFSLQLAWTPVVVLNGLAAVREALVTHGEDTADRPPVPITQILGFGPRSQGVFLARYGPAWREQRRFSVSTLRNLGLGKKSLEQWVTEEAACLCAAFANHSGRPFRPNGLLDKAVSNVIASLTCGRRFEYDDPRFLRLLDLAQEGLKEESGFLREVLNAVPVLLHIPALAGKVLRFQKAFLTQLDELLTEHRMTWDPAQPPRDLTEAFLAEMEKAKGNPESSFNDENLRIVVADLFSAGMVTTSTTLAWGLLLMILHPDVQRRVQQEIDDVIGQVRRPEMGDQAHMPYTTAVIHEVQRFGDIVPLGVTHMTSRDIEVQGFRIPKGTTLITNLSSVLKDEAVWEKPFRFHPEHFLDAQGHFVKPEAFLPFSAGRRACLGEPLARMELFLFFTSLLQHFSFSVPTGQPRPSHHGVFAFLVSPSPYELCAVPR
Sequence of Cytochrome P450 3A4 (P08684 whole entry): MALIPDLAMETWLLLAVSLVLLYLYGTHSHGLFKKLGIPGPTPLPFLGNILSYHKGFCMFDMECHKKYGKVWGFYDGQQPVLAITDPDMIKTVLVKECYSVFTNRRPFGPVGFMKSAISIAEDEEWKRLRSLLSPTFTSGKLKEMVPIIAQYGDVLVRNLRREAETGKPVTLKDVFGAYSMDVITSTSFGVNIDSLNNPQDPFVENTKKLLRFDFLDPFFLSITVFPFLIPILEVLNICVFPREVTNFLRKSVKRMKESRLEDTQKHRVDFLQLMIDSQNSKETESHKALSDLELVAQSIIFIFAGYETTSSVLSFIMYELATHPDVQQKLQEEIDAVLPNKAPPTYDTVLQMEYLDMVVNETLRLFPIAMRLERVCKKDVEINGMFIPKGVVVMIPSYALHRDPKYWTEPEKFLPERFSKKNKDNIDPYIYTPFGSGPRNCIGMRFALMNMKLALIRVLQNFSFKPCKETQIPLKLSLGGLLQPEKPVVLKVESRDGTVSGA

Regarding `O=C(O)COc1c(C(=O)O)sc(-c2ccccc2)c1Br`, the Ki was 280 µM in [1] and greater than 500 µM in data set [2].

For the compound `CCC(=O)Nc1cccc(-c2sc(C(=O)O)c(OCC(=O)O)c2Br)c1`, the Ki in [3] amounted to 2 µM.

With `CC(C)NC(=O)Nc1cccc(-c2sc(C(=O)O)c(OCC(=O)O)c2Br)c1`, the Ki in data set [3] was determined as 2.1 µM.

For `COC(=O)Nc1cccc(-c2sc(C(=O)O)c(OCC(=O)O)c2Br)c1`, the Ki in [3] was 2 µM.

In the case of `CC1(C)CC(Nc2cccc(-c3sc(C(=O)O)c(OCC(=O)O)c3Br)c2)CC(C)(C)C1`, the Ki is 151 µM in data set [1] and greater than 1000 µM in [2].

For the compound `O=C(O)COc1c(C(=O)O)sc(-c2cccc(OCc3ccccc3)c2)c1Br`, the inhibition constant Ki in [3] is 0.68 µM.

Consider `COc1cccc(-c2sc(C(=O)O)c(OCC(=O)O)c2Br)c1`, for which, in data set [3], the Ki was 4 µM.

On to `O=C(O)COc1c(C(=O)O)sc(-c2cccc(NC(=O)c3ccccc3)c2)c1Br`, for which, in data set [3], the Ki was determined as 2.1 µM.

Regarding `O=C(O)COc1c(C(=O)O)sc(-c2cccc(NS(=O)(=O)c3ccc(F)cc3)c2)c1Br`, the Ki in [3] was 0.44 µM.

With `O=C(O)COc1c(C(=O)O)sc(-c2cccc(NC3CCN(S(=O)(=O)Cc4ccccc4)CC3)c2)c1Br`, the Activity in the data set with Hepatocyte was determined as 70%. Moreover, the Ki in data set [1] is 77 µM; in [2] it was greater than 500 µM. The IC50 on Cytochrome P450 1A2 is greater than 500 µM; at Cytochrome P450 2C19 it was greater than 500 µM; against Cytochrome P450 2C9 it was 40 µM; against Cytochrome P450 2D6, greater than 500 µM; against Cytochrome P450 3A4 it was greater than 500 µM; on Cytochrome P450 2A6, greater than 500 µM. Besides, the IC50 against Cytochrome P450 2C8 was greater than 500 µM. This compound also came in with a solubility in [4] greater than 100 µg/mL. Moreover, the Papp in data set [5] is less than 1 ×10⁻⁶ cm/s. Moreover, the half-life in data set [6] was greater than 1 h; in [7] it was greater than 1 h; in [8], 0.767 h; in [16] it was 10 h. In [9], the highest level (Cmax) was 15200 nM. The concentration at 7 h in data set [10] was found to be 370 nM; in [12], 170 nM; in [14] it was 260 nM. For the same compound, the figures for the concentration at 1 h in [11] and in [13] were 6900 nM and 3500 nM, respectively. Moreover, in [15], the clearance was 7 mL/min/kg.
